# Experiments:
# [1] = Thermal equilibrium T2 at high field (14.1T), CPMG; format: physicochemical; details: for T2 Value (s) D2O: 95:5 D2O:H2O, 100 mM Tris pD 7.4; for T2 Value (s) H2O: 100% H2O, 100 mM Tris pH 7.4
# Protocol: (§1) [5-^13C]-glutamine (Cambridge Isotope Laboratories), [^13C]-urea (Sigma Aldrich), [^13C, ^15N2]-urea (Sigma Aldrich), [6-^13C]-arginine (Cambridge Isotope Laboratories), [5-^13C, ^15N]-glutamine (24) (24, as described in Example 7) and [6-^13C, ^15N3]-arginine (21, as described in Example 2) were evaluated to determine thermal equilibrium T1 and T2. An aliquot of each compound was dissolved in 95:5 D2O:H2O containing 100 mM Tris pD 7.4 and 100% H2O containing 100 mM Tris pH 7.4. [^13C]-urea and [^13C, ^15N2]-urea were dissolved to a final concentration of 100 mM.
# (§2) ^13C NMR spectra for each compound dissolved in 95:5 D2O:H2O and 100% H2O was obtained with a 14.1T ^13C NMR (Bruker, USA). For inversion recovery experiments, 13 to 15 different delay times between the 180° and 90° pulses, spanning 3T1, were sampled. Each spectrum was an average of 3 to 4 scans, and a 5T1 to 6T1 pre-scan wait time was used to allow re-polarization of carbon nuclear spins between scans. T2 values were measured using a Carr-Purcell-Meiboom-Gill (CPMG) sequence for each compound dissolved in 95:5 D2O:H2O and 100% H2O. A 10 ms (or 5 ms ^13C-urea samples) wait-time between 180° pulses was used, and signal was acquired at total echo times spanning 3T2. For both T1- and T2-relaxation curve fitting, spectra were imported into Mnova (Mestrelabs, USA) and the area under the curve (AUC) of the ^13C resonance of interest was integrated. AUC values were exported to Prism 7 (GraphPad Software, USA), plotted against time on the x-axis, and data points were fit to the Bloch equations for T1 and T2.
# (§3) When each compound was dissolved in D2O, the exchangeable protons on the nitrogen atoms rapidly exchange with deuterium in the solvent. As described in Table 1, at high field, each compound having protons exchanged with deuterium extended the T1 of ^13C relaxation times directly bonded to —NH or —NH2 residues, respectively. This effect is further illustrated for [6-^13C]-/[6-^13C, ^15N3]-arginine in FIG. 7.
# [2] = Hyperpolarized T1 at 1T after dissolution in buffered H2O or D2O; format: physicochemical; details: for Hyperpolarized T1 Value (s) D2O: dissolution in 100 mM Tris 1 mM EDTA pD 7.4 D2O; for Hyperpolarized T1 Value (s) H2O: dissolution in 100 mM Tris 1 mM EDTA pH 7.4 H2O
# Protocol: Each compound was prepared with a different formulation, as follows: [5-^13C]- and [5-^13C, ^15N]-glutamine was mixed with 1.1 equivalent HCl and dissolved to a final concentration of 1.5 Min H2O:DMSO (65:35). [^13C]— and [^13C, ^15N2]-urea was dissolved to a final concentration of 6M in glycerol. [6-^13C]- and [6-^13C, ^15N3]-arginine was mixed with 1 equivalent HCl and dissolved to a final concentration of 3.2M in H2O. Each of these preparations also contained OX063 radical (General Electric, UK) dissolved to a final concentration of 15 mM. [^13C]—/[^13C, ^15N2]-urea and [6-^13C]-/[6-^13C, ^15N3]-arginine samples were polarized in a 3.35T SpinLab Polarizer (General Electric, UK) for 1.5 hours (0.83K, 93.98 GHz), while: [5-^13C]-/[^13C, ^15N]-glutamine samples were polarized in a 5T SpinLab Polarizer for 2 hours (0.83K, 93.98 GHz). Following polarization, the HP substrate was ejected from the polarizer via rapid dissolution, during which a superheated solution of 100 mM Tris 1 mM EDTA in pH 7.4 H2O or pD 7.4 D2O is run through the sample vial to dissolve the polarized substrate and eject it into a pre-chilled glass vial (−20° C.).
# [3] = Hyperpolarized T1 of arginine guanidine-carbon at 1T; format: physicochemical; details: 30° flip angle, 3 s repetition time, average of two
# Protocol: (§4) To confirm the reduction of quadrupolar relaxation at the guanidine-carbon by ^15N enrichment, ^13C NMR spectra for unlabeled and [6-^13C, 6-^15N3]-L-Arginine-HCl (21, as described in Example 2) was obtained with a 14.1T ^13C NMR. The full width half max (FWHM) of the guanidine-carbon peak was measured, and the FWHM of the carbon-1 peak was used as an internal standard. For hyperpolarized T1 measurements compound 21 was mixed with 1 equivalent HCl and dissolved to a final concentration of 1.3 M in 2:3 H2O:glycerol with 15 mM of a OX063 radical. The sample was polarized for at least 1 h in a SpinSolve polarizer. […] This was performed twice and the calculated T1 values were averaged.
# (§5) The FWHM of the guanidine-carbon peak for natural abundance and compound 21 was measured to be 1.4 Hz and 1.0 Hz, respectively, and the FWHM of carbon-1 was 0.9 Hz for both compounds (FIG. 5B).
# [4] = Thermal equilibrium T1 at high field (14.1T), inversion recovery; format: physicochemical; details: for T1 Value (s) D2O: 95:5 D2O:H2O, 100 mM Tris pD 7.4; for T1 Value (s) H2O: 100% H2O, 100 mM Tris pH 7.4
# Protocol: as §1, §2, §3
# [5] = tested on: U251 cells; assay: CellROX green fluorescence microscopy of intracellular ROS; format: cell-based; details: menadione-treated U251 cells, co-incubation for 45 min
# Protocol: Western blots for XO and xanthine transporter were performed using 20 ng of protein extract from 14 cell lines. In vitro fluorescent microscopy using CellROX green was performed in U251 cells to evaluate intracellular reactive oxygen species (ROS) and the effect of xanthine as an ROS scavenger. 14 different cancer cell lines from renal, sarcoma, lung, prostate, breast, pancreatic, oral, epithelial cancer were also screened to evaluate expression of xanthine transporter and XO. In all the cells, a high expression of XO was observed, whereas xanthine transporter was variable between the cell lines, with the largest expression in U251 cells. Therefore, this cell line was used for further in vitro fluorescence experiments (FIG. 3).
# [6] = molecular target: T1, Xanthine Oxidase (XO) (Mus musculus, UniProt Q00519); assay: In vitro oxidation of xanthine by XO in mouse liver extract with O2− (PMS/NADH system), 13C NMR; format: biochemical; details: 100 mg mouse liver extract, in the presence of O2−
# T1 construct: from tissue; host or cells: mouse liver extract
# T1 sequence (Q00519 whole entry): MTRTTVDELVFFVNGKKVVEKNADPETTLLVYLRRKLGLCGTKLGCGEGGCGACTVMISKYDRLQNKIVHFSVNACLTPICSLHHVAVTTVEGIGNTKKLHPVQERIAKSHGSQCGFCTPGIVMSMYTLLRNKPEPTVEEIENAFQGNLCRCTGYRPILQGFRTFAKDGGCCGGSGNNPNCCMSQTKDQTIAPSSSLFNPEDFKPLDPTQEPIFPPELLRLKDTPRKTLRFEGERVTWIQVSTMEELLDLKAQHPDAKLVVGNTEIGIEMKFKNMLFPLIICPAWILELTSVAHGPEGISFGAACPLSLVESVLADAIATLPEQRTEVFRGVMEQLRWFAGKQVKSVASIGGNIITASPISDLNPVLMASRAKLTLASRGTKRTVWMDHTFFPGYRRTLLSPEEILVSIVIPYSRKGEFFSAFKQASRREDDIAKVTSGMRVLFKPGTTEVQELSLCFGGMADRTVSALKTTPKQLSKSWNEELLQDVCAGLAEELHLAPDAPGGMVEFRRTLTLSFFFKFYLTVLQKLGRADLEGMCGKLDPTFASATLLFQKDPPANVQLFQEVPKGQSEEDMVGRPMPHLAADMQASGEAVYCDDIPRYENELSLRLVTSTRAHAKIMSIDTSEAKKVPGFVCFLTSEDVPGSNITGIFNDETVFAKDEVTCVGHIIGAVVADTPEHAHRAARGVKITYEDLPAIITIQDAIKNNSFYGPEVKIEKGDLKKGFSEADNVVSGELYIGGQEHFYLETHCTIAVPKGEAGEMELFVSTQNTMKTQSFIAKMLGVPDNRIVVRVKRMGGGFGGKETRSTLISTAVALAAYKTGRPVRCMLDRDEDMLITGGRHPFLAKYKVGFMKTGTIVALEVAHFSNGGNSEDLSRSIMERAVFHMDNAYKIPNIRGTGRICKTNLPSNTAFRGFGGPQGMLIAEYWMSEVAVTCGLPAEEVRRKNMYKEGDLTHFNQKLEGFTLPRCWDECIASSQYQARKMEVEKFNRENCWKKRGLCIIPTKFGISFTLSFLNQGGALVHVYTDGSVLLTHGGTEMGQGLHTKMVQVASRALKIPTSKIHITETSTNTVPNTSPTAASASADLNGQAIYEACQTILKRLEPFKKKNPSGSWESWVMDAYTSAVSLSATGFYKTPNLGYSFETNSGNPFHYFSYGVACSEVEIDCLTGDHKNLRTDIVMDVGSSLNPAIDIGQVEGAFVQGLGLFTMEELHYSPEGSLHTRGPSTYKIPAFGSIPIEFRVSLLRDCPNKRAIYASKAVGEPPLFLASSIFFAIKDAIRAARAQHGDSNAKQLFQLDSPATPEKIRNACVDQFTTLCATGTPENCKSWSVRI
# Protocol: (§6) A preparation containing 0.15-0.2 M [2-^13C, 1,3-^15N2]-3,7-dihydro-1H-purine-2,6-dione (6, as described in Example 1) and the OX063 radical was hyperpolarized using a SPINlab hyperpolarizer. T1 measurements were performed using 1T Magritek Spectrometer. For the acquisition of hyperpolarized spectra, data was acquired with a 5 s repetition time and 15° excitation for a total of 45 s. In vitro enzymatic experiments to evaluate the activity of XO in oxidizing xanthine (XA) to uric acid (UA) using superoxide as a cofactor were performed using 100 mg of mouse liver extract together with a PMS/NADH+ system to generate O^2−. ^13C NMR spectra was acquired using a 14.1T NMR spectrometer.
# (§7) Compound 6 was hyperpolarized. The ^13C chemical shift between hyperpolarized XA and hyperpolarized UA was measured and determined to be 0.8 ppm. After dissolution, spectra of compound 6 were obtained and fit to a mono-exponential decay function, correcting for flip angle, to determine the spin-lattice relaxation time. A T1 of 77±1.4 s was measured (FIG. 2).
# [7] = Hyperpolarized T1 measurement of 13C,15N-xanthine at 1T; format: physicochemical; details: mono-exponential decay fit corrected for flip angle
# Protocol: as §6, §7
# [8] = In vivo 13C EPI imaging of hyperpolarized urea in mouse; details: healthy female Balb/c mouse, monitored for 30 minutes
# Protocol: Hyperpolarized [^13C, ^15N2]-urea was studied under clinical imaging conditions. A healthy female Balb/c mouse (12 weeks old) was injected with identical volumes of hyperpolarized [^13C, ^15N]-urea dissolved in either buffered D2O or H2O (FIG. 9A). Both samples were polarized for similar amounts of time and were dissolved to similar final concentrations. Immediately following the end of the injection, an axial 2D ^13C echo-planar imaging (EPI) sequence was initiated with a 3 s repetition time, 16×16 resolution with 2.25 mm×2.25 mm×10 mm voxels.
# [9] = FWHM of 13C NMR peaks at 14.1T (quadrupolar relaxation at guanidine-carbon); format: physicochemical; details: for FWHM of the guanidine-carbon peak / FWHM of carbon-1: 14.1T 13C NMR; for FWHM of carbon-1: internal standard
# Protocol: as §4, §5
# Therefore, the present methods may be used to follow Arg-1 activity within a tumor and serve as a surrogate readout of TAM infiltration. As such, this information may be used in therapy selection, monitoring therapeutic efficacy, and determining prognosis.
# [10] = molecular target: T2, human recombinant arginase-1 (Homo sapiens, UniProt P05089); assay: Michaelis-Menten kinetics, colorimetric urea assay; format: biochemical; details: 37° C., compound as substrate
# T2 sequence (P05089 1-322): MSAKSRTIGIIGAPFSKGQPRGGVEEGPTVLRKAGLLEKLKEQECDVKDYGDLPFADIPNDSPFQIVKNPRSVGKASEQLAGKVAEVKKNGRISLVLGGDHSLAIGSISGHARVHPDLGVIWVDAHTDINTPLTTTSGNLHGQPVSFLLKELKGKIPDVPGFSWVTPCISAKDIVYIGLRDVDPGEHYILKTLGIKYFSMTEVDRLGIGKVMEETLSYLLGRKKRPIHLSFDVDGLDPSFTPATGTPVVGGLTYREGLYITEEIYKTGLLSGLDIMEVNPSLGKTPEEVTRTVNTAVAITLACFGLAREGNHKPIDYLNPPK
# [11] = molecular target: T3, arginase (Mus musculus, UniProt Q61176); assay: In vivo conversion of injected labeled arginine to urea in mouse liver (13C-NMR of extract); details: Balb/c mouse, tail vein 250 μL 20 mM, 1 min post-injection, extrapolated to a 1 g liver
# T3 construct: from tissue; host or cells: liver of a living Balb/c mouse (in vivo)
# T3 sequence (Q61176 1-323): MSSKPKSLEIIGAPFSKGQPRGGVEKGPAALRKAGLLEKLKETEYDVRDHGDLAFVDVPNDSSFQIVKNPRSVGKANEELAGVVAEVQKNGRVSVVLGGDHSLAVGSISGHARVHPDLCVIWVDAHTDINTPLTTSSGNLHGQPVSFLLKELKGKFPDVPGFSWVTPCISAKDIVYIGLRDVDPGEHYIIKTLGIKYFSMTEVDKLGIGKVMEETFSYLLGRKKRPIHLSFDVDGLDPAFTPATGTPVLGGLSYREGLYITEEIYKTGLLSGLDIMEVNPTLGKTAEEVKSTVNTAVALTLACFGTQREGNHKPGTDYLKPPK
# Protocol: In vivo assay: A female, Balb/c mouse was equipped with a tail vein cannula and placed under anesthesia (1.5% isoflurane, 1 L/min for 30 mins), after which it was injected with 250 μL 20 mM [6-^13C, ^15N3]-arginine in 100 mM Tris, 1 mM EDTA pH 7.4 (in addition to another 100 μL of 10 U/mL heparin in saline which was in the dead space of the cannula) over the course of 10 seconds. 1 minute post-injection, the mouse was sacrificed via cervical dislocation, and the liver was collected and frozen in liquid nitrogen. 118 mg of the liver was extracted in 4% perchloric acid, the metabolite extract mixture was dried and subsequently re-suspended in D2O containing the glycine standard and 0.5 mM Gd-DOTA. A ^13C-NMR spectrum was acquired on a 600 MHz spectrometer (FIG. 10).
Compound,T2 Value (s) D2O [1],T2 Value (s) H2O [1],Hyperpolarized T1 Value (s) D2O [2],T1 of the guanidine-carbon [3],T1 Value (s) D2O [4],T1 Value (s) H2O [4],oxidative stress (CellRox fluorescence) [5],time to be oxidized in liver extracts [6],T1 (spin-lattice relaxation time) [7],Hyperpolarized T1 Value (s) H2O [2],morbidity after the two injections [8],FWHM of the guanidine-carbon peak [9],FWHM of carbon-1 [9],Vmax [10],"[13C, 15N2]-urea produced, share of the total injected arginine dose [11]",decrease of FWHMguanidine:FWHMcarbon-1 ratio ([9]; labeled versus natural abundance arginine),Km [10]
"N=[13C](N)NCCC[C@H](N)C(=O)O [Arginine ^13C, [6-^13C]-arginine]",0.234 ± 0.004 s,0.184 ± 0.003 s,32.1 ± 4.5 s,could not be measured,9.74 ± 0.32 s,6.62 ± 0.22 s,–,–,–,–,–,–,–,–,–,–,–
"O=c1[15nH][13c](=O)[15nH]c2nc[nH]c12 [Compound 6, [2-^13C, 1,3-^15N2]-3,7-dihydro-1H-purine-2,6-dione]",–,–,–,–,–,–,reduced,less than 10 minutes,77 ± 1.4 s,–,–,–,–,–,–,–,–
"N[C@@H](CC[13C]([15NH2])=O)C(=O)O [Compound 24, (5-13C, 5-15N) L-glutamine]",4.66 ± 0.67 s,3.35 ± 0.21 s,31.2 ± 3.8 s,–,12.29 ± 0.32 s,10.79 ± 0.34 s,–,–,–,23.6 ± 2.1 s,–,–,–,–,–,–,–
"N[C@@H](CC[13C](N)=O)C(=O)O [Glutamine ^13C, [5-^13C]-glutamine]",0.455 ± 0.004 s,0.354 ± 0.003 s,34.1 ± 2.5 s,–,12.34 ± 0.21 s,10.66 ± 0.34 s,–,–,–,21.8 ± 1.8 s,–,–,–,–,–,–,–
"N[13C](N)=O [Urea ^13C, [^13C]-urea]",0.100 ± 0.002 s,0.089 ± 0.001 s,123.8 ± 19.6 s,–,57.24 ± 3.95 s,31.01 ± 1.18 s,–,–,–,51.6 ± 5.44 s,–,–,–,–,–,–,–
"[15NH2][13C]([15NH2])=O [Urea ^13C, ^15N2, [^13C, ^15N2]-urea]",34.61 ± 0.64 s,20.12 ± 0.17 s,115.9 ± 8.5 s,–,57.34 ± 2.04 s,31.97 ± 1.38 s,–,–,–,53.3 ± 2.6 s,no obvious morbidity,–,–,–,–,–,–
"N=C(N)NCCC[C@H](N)C(=O)O [natural abundance arginine, arginine]",–,–,–,–,–,–,–,–,–,–,–,1.4 Hz,0.9 Hz,54.8 ± 2.2 s⁻¹,–,–,–
"[6-^13C, 6-^15N3]-L-Arginine-HCl [Compound 21]",2.68 ± 0.03 s,0.82 ± 0.02 s,31.2 ± 6.8 s,20.4 ± 0.4 s,9.71 ± 0.26 s,6.83 ± 0.19 s,–,–,–,13.3 ± 0.8 s,–,1.0 Hz,0.9 Hz,48.2 ± 2.0 s⁻¹,approx. 3%,29%,2040 ± 270 µM

# Reference: patent publication US11330999B2 (MEMORIAL SLOAN KETTERING CANCER CENTER, priority 2017, dated 2022)
